Experimental findings from patent publication US8828929B2 (priority 2008, dated 2014) are described below.

Assay [1] relates to peptide-specific CTLs (IFN-γ-positive cells among CD8-positive cells). Also on record: species or system HLA-A2 transgenic mouse. The settings on record: mouse, in vivo; for ICS (% in CD8+ cells): iv.
Assay [2] addresses T1, HLA-A*0201 (Homo sapiens, UniProt P04439, /I218V/L300P/L318F/N151K/N90K/P208A/P217A/Q86G/Q94H/R138H/R169H/T345S).
T1 construct: endogenous in cells; host or cells: T2 cells (human lymphoid, TAP-deficient)
The assay is described as follows: cell-based. It is filed as binding.

Assay [3] deals with peptide-specific CTLs (IFN-γ-positive cells among CD8-positive cells). Also on record: species or system HLA-A2 transgenic mouse. The settings on record: mouse, in vivo.
Assay [4] deals with target cells pulsed with the peptide. Also on record: species or system HLA-A2 transgenic mouse. The settings on record: mouse, in vivo.
In assay [5] the target is T2, HLA-A*0201 (Homo sapiens, UniProt P04439, D140Y/D185E/D98H/E176V/E277Q/G131W/G231S/I119V/I121R/I166T/I218V/L300P/L318F/N151K/N90K/P208A/P217A/Q86G/Q94H/R138H/R169H/T345S).
T2 construct: endogenous in cells; host or cells: T2 cells (human lymphoid, TAP-deficient)
Description: cell-based. It is filed as binding.

Where no end group is shown, it is not given here.

For `CC[C@H](C)[C@H](NC(=O)[C@H](CCC(=O)O)NC(=O)[C@H](CC(C)C)NC(=O)[C@H](CC(C)C)NC(=O)[C@H](CC(=O)O)NC(=O)[C@H](CCC(=O)O)NC(=O)[C@H](CC(N)=O)NC(=O)[C@H](CC(C)C)NC(=O)[C@@H](N)[C@@H](C)O)C(=O)O` [pp1a-445], in assay [1], the “ICS (% in CD8+ cells)” value was found to be 0.08%. On HLA-A*0201 [2], the Affinity result was “High (key: High: less than 100 μM; Medium: 100 to 200 μM; Low: more than 200 μM)”.
With `CC[C@H](C)[C@H](NC(=O)[C@H](CC(=O)O)NC(=O)[C@H](Cc1ccccc1)NC(=O)[C@@H](NC(=O)CNC(=O)[C@@H](NC(=O)[C@@H](NC(=O)[C@H](CC(C)C)NC(=O)[C@@H](N)Cc1ccccc1)[C@@H](C)CC)[C@@H](C)O)C(C)C)C(=O)O` [pp1a-651], the “ICS (% in CD8+ cells)” value in assay [1] turned out to be 0.02%. Further, the Affinity entry on HLA-A*0201 [2] is “High (key: High: less than 100 μM; Medium: 100 to 200 μM; Low: more than 200 μM)”.
For `CC[C@H](C)[C@H](NC(=O)[C@H](CO)NC(=O)[C@H](CC(C)C)NC(=O)[C@H](CC(C)C)NC(=O)[C@H](CC(C)C)NC(=O)[C@H](CC(C)C)NC(=O)[C@H](Cc1c[nH]c2ccccc12)NC(=O)[C@H](CCSC)NC(=O)[C@H](C)N)C(=O)O` [pp1a-2207], in assay [3], the CTL induction activity result was “higher than that of the CTL epitope peptide of the Spike protein”. In addition, in assay [1], the “induction of IFN-γ-positive cells among CD8-positive cells” value is reported as “significantly induced IFN-γ-positive cells among CD8-positive cells” and the “ICS (% in CD8+ cells)” value is given as “*0.48%”.
With `CC(C)C[C@H](NC(=O)[C@H](C)NC(=O)[C@H](C)NC(=O)[C@H](CC(C)C)NC(=O)[C@@H](NC(=O)[C@H](CS)NC(=O)[C@H](CC(C)C)NC(=O)[C@H](CC(C)C)NC(=O)[C@@H](N)[C@@H](C)O)C(C)C)C(=O)O` [pp1a-2754, TLLCVLAAL], in assay [1], the “ICS (% in CD8+ cells)” value is listed as 0.04%. Moreover, the Affinity result at HLA-A*0201 [2] was “High (key: High: less than 100 μM; Medium: 100 to 200 μM; Low: more than 200 μM)”.
On to `CC(C)C[C@H](NC(=O)[C@H](Cc1c[nH]c2ccccc12)NC(=O)[C@H](C)NC(=O)[C@H](CC(C)C)NC(=O)[C@@H](N)C(C)C)C(=O)N[C@@H](Cc1ccc(O)cc1)C(=O)N[C@@H](C)C(=O)N[C@@H](C)C(=O)N[C@H](C(=O)O)C(C)C` [pp1a-3444], for which, in assay [1], the “induction of IFN-γ-positive cells among CD8-positive cells” value is on record as “significantly induced IFN-γ-positive cells among CD8-positive cells” and the “ICS (% in CD8+ cells)” value is recorded as “*0.12%”. The Affinity entry at HLA-A*0201 [2] is given as “High (key: High: less than 100 μM; Medium: 100 to 200 μM; Low: more than 200 μM)”.
As to `CC(C)C[C@H](NC(=O)[C@@H](NC(=O)[C@@H](NC(=O)[C@@H](NC(=O)[C@H](Cc1ccccc1)NC(=O)[C@H](CCCNC(=N)N)NC(=O)[C@H](CC(N)=O)NC(=O)[C@H](CC(C)C)NC(=O)[C@@H](N)Cc1ccccc1)[C@@H](C)O)[C@@H](C)O)[C@@H](C)O)C(=O)O` [pp1a-3459], in assay [1], the “ICS (% in CD8+ cells)” value is 0.03%. Further, the Affinity entry on HLA-A*0201 [2] is on record as “High (key: High: less than 100 μM; Medium: 100 to 200 μM; Low: more than 200 μM)”.
The like results for `CC[C@H](C)[C@H](NC(=O)[C@H](CC(C)C)NC(=O)[C@H](CC(C)C)NC(=O)[C@H](CO)NC(=O)[C@@H](NC(=O)[C@H](CC(C)C)NC(=O)[C@@H](N)Cc1ccccc1)[C@@H](C)O)C(=O)N[C@@H](CC(C)C)C(=O)N[C@H](C(=O)O)C(C)C` [pp1a-3564] were, in that order, 0.06% and “Medium (key: High: less than 100 μM; Medium: 100 to 200 μM; Low: more than 200 μM)”.
With `CC(C)C[C@H](NC(=O)[C@H](CO)NC(=O)[C@@H]1CCCN1C(=O)[C@H](CC(C)C)NC(=O)[C@H](CC(C)C)NC(=O)[C@@H](N)Cc1ccccc1)C(=O)N[C@@H](C)C(=O)N[C@H](C(=O)N[C@H](C(=O)O)C(C)C)[C@@H](C)O` [pp1a-3616], the “ICS (% in CD8+ cells)” value in assay [1] was determined as 0.07%. In addition, the Affinity result at HLA-A*0201 [2] is “High (key: High: less than 100 μM; Medium: 100 to 200 μM; Low: more than 200 μM)”.
For `CC[C@H](C)[C@H](NC(=O)[C@@H](NC(=O)[C@H](CC(N)=O)NC(=O)[C@H](CCSC)NC(=O)[C@H](CC(C)C)NC(=O)[C@@H](N)[C@@H](C)O)C(C)C)C(=O)N[C@H](C(=O)N[C@@H](CC(C)C)C(=O)N[C@H](C(=O)O)C(C)C)[C@@H](C)O` [pp1a-3687], the CTL induction activity entry in assay [3] is recorded as “higher than that of the CTL epitope peptide of the Spike protein”. Also, in assay [1], the “induction of IFN-γ-positive cells among CD8-positive cells” value is listed as “significantly induced IFN-γ-positive cells among CD8-positive cells” and the “ICS (% in CD8+ cells)” value is “*0.20%”. Moreover, the Affinity result on HLA-A*0201 [2] is “High (key: High: less than 100 μM; Medium: 100 to 200 μM; Low: more than 200 μM)”.
In the case of `CC[C@H](C)[C@H](NC(=O)[C@@H](NC(=O)[C@H](CC(C)C)NC(=O)[C@H](C)NC(=O)[C@H](Cc1c[nH]c2ccccc12)NC(=O)[C@H](CCSC)NC(=O)[C@@H](N)CO)C(C)C)C(=O)N[C@@H](CO)C(=O)N[C@H](C(=O)O)C(C)C` [pp1a-3709], in assay [3], the CTL induction activity result was “higher than that of the CTL epitope peptide of the Spike protein”. Besides, in assay [1], the “induction of IFN-γ-positive cells among CD8-positive cells” value was “significantly induced IFN-γ-positive cells among CD8-positive cells” and the “ICS (% in CD8+ cells)” value is on record as “*0.50%”. In addition, in assay [4], the CTL response activity result was “especially high CTL response activity” and the “peptide-specific lysis rates (%) of the target cells by CTLs” value (“peptide-specific lysis rates (%)” for short) came out at 96.3%. Moreover, at HLA-A*0201 [2], the Affinity entry is given as “High (key: High: less than 100 μM; Medium: 100 to 200 μM; Low: more than 200 μM)”.
Turning to ALSGVFCGV [pp1a-2990], the CTL induction activity result in assay [3] is listed as “higher than that of the CTL epitope peptide of the Spike protein”. For the same molecule, in assay [1], the “induction of IFN-γ-positive cells among CD8-positive cells” value is listed as “significantly induced IFN-γ-positive cells among CD8-positive cells” and the “ICS (% in CD8+ cells)” value is given as “*0.16%”. Further, in assay [4], the CTL response activity result is reported as “high CTL response activities” and the “peptide-specific lysis rates (%)” value is recorded as 73.4%. Moreover, at HLA-A*0201 [5], the EC50 worked out at 6.2 µM. The Affinity entry on HLA-A*0201 [2] is recorded as “High (key: High: less than 100 μM; Medium: 100 to 200 μM; Low: more than 200 μM)”.
For “FIAGLIAIV [spike-1203, reference compound]”, in assay [3], the “ratio (%) of IFN-γ-positive cells among CD8-positive cells” value is recorded as 0.29%.
As for ILLLDQVLV [pp1a-2546], the CTL induction activity entry in assay [3] was “higher than that of the CTL epitope peptide of the Spike protein”. Moreover, in assay [1], the “induction of IFN-γ-positive cells among CD8-positive cells” value was “significantly induced IFN-γ-positive cells among CD8-positive cells” and the “ICS (% in CD8+ cells)” value is reported as “*0.17%”. Moreover, the midpoint of the response on HLA-A*0201 [5], the EC50, lay at 7.6 µM. In addition, the Affinity entry on HLA-A*0201 [2] is “High (key: High: less than 100 μM; Medium: 100 to 200 μM; Low: more than 200 μM)”.
On to KLNIKLLGI [pp1a-3816], for which the “ICS (% in CD8+ cells)” value in assay [1] turned out to be 0.07%. This molecule came in with an EC50 at HLA-A*0201 [5] of 68.1 µM. In addition, the Affinity result at HLA-A*0201 [2] is on record as “High (key: High: less than 100 μM; Medium: 100 to 200 μM; Low: more than 200 μM)”.
The like results for KLSAGVEFL [pp1a-634] were, in that order, 0.08%, 59.8 µM and “High (key: High: less than 100 μM; Medium: 100 to 200 μM; Low: more than 200 μM)”.
As to LLCVLAALV [pp1a-2755], the CTL induction activity entry in assay [3] was “higher than that of the CTL epitope peptide of the Spike protein”. Further, in assay [1], the “induction of IFN-γ-positive cells among CD8-positive cells” value is reported as “significantly induced IFN-γ-positive cells among CD8-positive cells” and the “ICS (% in CD8+ cells)” value is reported as “*0.18%”. In assay [4], the CTL response activity result is listed as “high CTL response activities” and the “peptide-specific lysis rates (%)” value came out at 70.5%. Moreover, the concentration giving a half-maximal response (EC50) on HLA-A*0201 [5] was determined as 187 µM.
Consider LLFITGNTL [pp1a-3745], for which the “ICS (% in CD8+ cells)” value in assay [1] is given as 0.03%. For the same molecule, a half-maximal effect at HLA-A*0201 [5] (EC50) was put at 154 µM. The Affinity result at HLA-A*0201 [2] is listed as “Medium (key: High: less than 100 μM; Medium: 100 to 200 μM; Low: more than 200 μM)”.
In the same order, the values of MLLTFLTSL [pp1a-3560] are 0.04%, 47.1 µM and “High (key: High: less than 100 μM; Medium: 100 to 200 μM; Low: more than 200 μM)”.
The like results for MLSRALKKV [pp1a-1288] were, in that order, 0.05%, 65.1 µM and “High (key: High: less than 100 μM; Medium: 100 to 200 μM; Low: more than 200 μM)”.
The like results for QLSLPVLQV [pp1a-15] were, in that order, 0.05%, 75.7 µM and “High (key: High: less than 100 μM; Medium: 100 to 200 μM; Low: more than 200 μM)”.
As for SLQVCVQTV [pp1a-1139], the “ICS (% in CD8+ cells)” value in assay [1] turned out to be 0.07%. For the same molecule, at HLA-A*0201 [5], the midpoint of the response, the EC50, lay at 4.9 µM. Besides, on HLA-A*0201 [2], the Affinity entry is “High (key: High: less than 100 μM; Medium: 100 to 200 μM; Low: more than 200 μM)”.
In the same order, the values of TLGVLVPHV [pp1a-103] are 0.07%, 3.1 µM and “High (key: High: less than 100 μM; Medium: 100 to 200 μM; Low: more than 200 μM)”.
The like results for VLGSLAATV [pp1a-4219] were, in that order, 0.01%, 53.3 µM and “High (key: High: less than 100 μM; Medium: 100 to 200 μM; Low: more than 200 μM)”.
In the same order, the values of VLLSVLQQL [pp1a-3848] are 0.07%, 102 µM and “Medium (key: High: less than 100 μM; Medium: 100 to 200 μM; Low: more than 200 μM)”.
YLSSVLLAL [pp1a-1652, YLSSVLLAL]: the “ICS (% in CD8+ cells)” value in assay [1] is given as 0.05%. For the same molecule, the EC50 at HLA-A*0201 [5] came to 6.7 µM. Further, at HLA-A*0201 [2], the Affinity entry is listed as “High (key: High: less than 100 μM; Medium: 100 to 200 μM; Low: more than 200 μM)”.
